Key:
COX-1 = COX-1 (Ovis aries, UniProt P05979); experiment: COX-1 inhibition assay (as disclosed in Chem. Med. Chem. 2012, 7, 629-641); format: biochemical
Procedure: The biological assays were carried out as disclosed in Chem. Med. Chem. 2012, 7, 629 - 641.

[1] = tested on: ovarian surface epithelial cells allografted in female nude mice; conditions: after treatment with SC-560, recent reports; cited from earlier work

Chain of COX-1 (P05979 25-600): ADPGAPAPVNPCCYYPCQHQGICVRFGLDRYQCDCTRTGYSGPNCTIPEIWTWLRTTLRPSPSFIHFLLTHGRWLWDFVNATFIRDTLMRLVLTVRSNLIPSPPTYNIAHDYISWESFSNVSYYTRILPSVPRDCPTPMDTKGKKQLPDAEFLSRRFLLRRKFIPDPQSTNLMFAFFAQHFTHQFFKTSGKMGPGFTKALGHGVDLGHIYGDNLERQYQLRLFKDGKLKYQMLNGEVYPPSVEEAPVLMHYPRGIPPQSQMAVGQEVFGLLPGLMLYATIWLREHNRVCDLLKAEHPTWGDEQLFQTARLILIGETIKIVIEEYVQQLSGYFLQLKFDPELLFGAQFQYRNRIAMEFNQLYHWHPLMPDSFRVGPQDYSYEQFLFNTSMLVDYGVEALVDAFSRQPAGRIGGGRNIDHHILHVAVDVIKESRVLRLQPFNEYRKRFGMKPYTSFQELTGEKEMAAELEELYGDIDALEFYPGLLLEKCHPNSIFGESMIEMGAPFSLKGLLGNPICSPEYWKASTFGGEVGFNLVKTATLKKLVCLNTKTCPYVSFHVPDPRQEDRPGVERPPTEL

Compound	IC50 (COX-1) [nM]	tumor growth [1]
COc1ccc(-c2noc(C)c2-c2ccc(OC)cc2)cc1 [(III), 3,4-bis(4-methoxyphenyl)-5-methylisoxazole]	76	–
COc1ccc(-n2nc(C(F)(F)F)cc2-c2ccc(Cl)cc2)cc1 [SC-560]	–	significantly reduction of tumor growth
